Measurements: US5576324A, “Quinoline derivatives or salt thereof and remedy for cardiac diseases containing the same” (Kowa Co., Ltd., priority 1992, dated 1996)
Where a name gives a salt, the structure may show the parent alone.

Assays:
[1] = system: Mouse Arrhythmia Induced by Chloroform (ventricular fibrillation); experiment: Action on Mouse Arrhythmia Induced by Chloroform; type: in vivo; conditions: 100 mg/kg given to mice, 20 min before chloroform
Protocol: Action on Mouse Arrhythmia Induced by Chloroform
Test compounds (100 mg/kg) were given to mice, and 20 minutes thereafter, the mice were confined in a pot filled with chloroform. Upon respiratory stoppage, the mice were immediately taken out of the pot, and electrocardiodiagram (lead II) was recorded to obtain ventricular tachycardia, ventricular fibrillation, and period until the cardiac arrest.

[2] = system: Blood Flow of a Hind Leg of Anesthetic Dog; experiment: Action on the Blood Flow of a Hind Leg of Anesthetic Dog; type: in vivo; conditions: Canis lupus familiaris; 100 μg into femoral artery, anesthetized dog; read-out: Increment of Blood Flow
Protocol: Action on the Blood Flow of a Hind Leg of Anesthetic Dog
Adult crossbred dogs were put under anesthesia with pentobarbital-Na (30 mg/kg) by intravenous injection, Heparin was administered to each dog, and an extracorporeal circulation circuit was established in the femoral artery, The blood flow in the hind leg was measured with an electromagnetic hemodromometer placed on the circuit, The samples were administered at a dose of 100 μg into the feromal artery through a rubber tube provided on the circuit.

[3] = system: Guinea Pig Atrium (left atrium contraction); experiment: Inotropic action on guinea pig atrium samples; conditions: Cavia porcellus, 10^-7 M, 1 Hz, 32° C., read-out: Increment of Contraction of the left atrium
Protocol: Inotropic Action and Action Against Time-dependent Action on Guinea Pig Atrium Samples
Guinea pigs were smashed at the head, and were exsanguinated through a cut in the carotid artery. Their hearts were taken out. From each heart, the right and left atria were obtained. The atria were suspended in Krebs-Henzereit solution at 32° C. through which a gas containing 95% oxygen and 5% carbon dioxide was passed. The tensile strength was measured with a strain gauge, and was amplified and recorded. Beats of right atria were counted using a tachometer, and the counts were regarded as the cardiac rate. Electric pulses (1 Hz, 5 msec) having twice the magnitude of the threshold were applied onto the left atria. The samples were given to […] in an accumulative manner at intervals of 5 minutes.
The results are expressed by the increment of contraction of the left atrium when 10^-7 M of a sample was administered.

Compound	% Inhibition of ventricular fibrillation [1] [%]	change in vivo at 0.1 mg [2] [%]	activation at 0.1 µM [3] [%]
Cc1cc2c(c3ccc(=O)[nH]c13)OC(C)(CN)C2(C)C (stereo not drawn) [Example 22]	90	–	–
NCC1Cc2cc(Cl)c3[nH]c(=O)ccc3c2O1 (stereo not drawn) [Example 120, 2-Aminomethyl-5-chloro-2,3,6,7-tetrahydrofuro[2,3-f]quinoline-7-one.HCl]	90	110	–
NCC1Cc2c(ccc3[nH]c(=O)ccc23)O1 (stereo not drawn) [Example 50, 2-Aminomethyl-1,2,6,7-tetrahydrofuro[3,2-f]quinoline-7-one]	–	26.7	11.1
Cc1cc2c(c3ccc(=O)[nH]c13)OC(C)(CN)C2 (stereo not drawn) [Example 20]	100	–	–
Cc1cc2c(c3c1NC(=O)CC3)OC(C)(CN)C2 (stereo not drawn) [Example 21]	–	35.7	–
COc1ccc(CCNCC2Cc3cc(C)c4[nH]c(=O)ccc4c3O2)cc1OC (stereo not drawn) [Example 99]	–	97	–
Cc1cc2c(c3ccc(=O)[nH]c13)OC(CN1CCCCC1)C2 (stereo not drawn) [Example 82]	–	31	–
Cc1cc2c(c3c1NC(=O)CC3)OC(CF)C2 (stereo not drawn) [Example 108]	–	54.8	–
COCC1Cc2cc(C)c3[nH]c(=O)ccc3c2O1 (stereo not drawn) [Example 109]	–	–	20.3
Cc1cc2c(c3c1NC(=O)CC3)OC(CNS(C)(=O)=O)C2 (stereo not drawn) [Example 114]	–	–	18.8
Cc1cc2c(c3ccc(=O)[nH]c13)OC(CF)C2 (stereo not drawn) [Example 107, 2-Fluoromethyl-5-methyl-2,3,6,7-tetrahydrofuro-[2,3-f]quinoline-7-one]	–	54.1	–
CC(=O)OCC1Cc2cc(C)c3[nH]c(=O)ccc3c2O1 (stereo not drawn) [Example 103, 2-Acetoxymethyl-5-methyl-2,3,6,7-tetrahydrofuro-[2,3-f]quinoline-7-one]	–	66.7	13.1
NCC1Cc2cc(Cl)c3c(c2O1)CCC(=O)N3 (stereo not drawn) [Example 121]	100	–	–
CCN(CC)CC1Cc2cc(C)c3c(c2O1)CCC(=O)N3 (stereo not drawn) [Example 77]	100	–	–
Cc1cc2c(c3ccc(=O)[nH]c13)OC(CI)C2 (stereo not drawn) [Example 106, 2-Iodomethyl-5-methyl-2,3,6,7-tetrahydrofuro-[2,3-f]quinoline-7-one]	–	39.5	46.8
CCCCNCC1Cc2cc(C)c3[nH]c(=O)ccc3c2O1 (stereo not drawn) [Example 94, 2-(n-butylamino)methyl-5-methyl-2,3,6,7-tetrahydrofuro[2,3-f]quinoline-7-one.HCl]	100	–	–
Cc1cc2c(c3ccc(=O)[nH]c13)OC(CN)C2C (stereo not drawn) [Example 13, (2RS, 3SR)-2-Aminomethyl-3,5-dimethyl-2,3,6,7-tetrahydrofuro[2,3-f]quinoline-7-one.HCl]	–	–	31.8
